Experiment [1] deals with Sigma 2 receptor. As to the kind of experiment: Binding affinity was evaluated against sigma-2 binding site in rat liver using [3H]DTG -(+)-Dextrallorphan as radioligand.
Experiment [2] concerns the target Sigma 2 receptor. As to the kind of experiment: The Binding affinity was evaluated against sigma-2 binding site in rat liver using [3H]- -(+)-3-PPP.
Experiment [3] deals with Sigma 2 receptor. As to the kind of experiment: The Binding affinity was evaluated using [3H]DTG -(+)-Dextrallorphan] in rat liver.

In general, Ki refers to a measure of affinity in units of concentration, obtained from inhibition or displacement. In turn, `CN(CCc1cccc(Cl)c1)CCN1CCCC1` had a Ki at Sigma 2 receptor [1] of 28.3 nM.

The compound `CN(CCc1cccc(Br)c1)CCN1CCCC1` gave a Ki at Sigma 2 receptor [1] of 59.8 nM.

As for `CN(CCc1cccc(I)c1)CCN1CCCC1`, the Ki at Sigma 2 receptor [1] was determined as 9.1 nM.

Consider `CN(CCc1ccc(I)cc1)CCN1CCCC1`, for which the Ki at Sigma 2 receptor [1] is 43.1 nM.

As to `CN(CCc1cccc(F)c1)CCN1CCCC1`, the Ki at Sigma 2 receptor [1] worked out at 104 nM.

In the case of `CN(CCN1CCCC1)Cc1cccc(Br)c1`, the Ki on Sigma 2 receptor [1] came out at 220 nM.

Compound `CN(CCc1ccc(F)cc1)CCN1CCCC1` returned a Ki at Sigma 2 receptor [1] of 124 nM.

For the compound `CN(CCN1CCCC1)Cc1ccc(I)cc1`, the inhibitory constant (Ki) on Sigma 2 receptor [1] worked out at 24.5 nM.

As to `CN(CCc1ccc(Cl)c(Cl)c1)CCN1CCCC1`, the Ki on Sigma 2 receptor [1] stood at 8.1 nM; on Sigma 2 receptor [2] it was 0.34 nM.

Regarding `CN(CCc1ccc(Br)cc1)CCN1CCCC1`, the Ki on Sigma 2 receptor [1] is 32.5 nM.

The compound `CN(CCN1CCCC1)Cc1ccccc1I` gave a Ki at Sigma 2 receptor [1] of 48.2 nM.

Compound `CN(CCN1CCCC1)Cc1cccc(I)c1` displayed a Ki at Sigma 2 receptor [1] of 33.7 nM. The Ki values of the last two compounds are within 1.5-fold of each other.

In turn, `CN(CCc1ccc(Cl)cc1)CCN1CCCC1` registered a Ki on Sigma 2 receptor [1] of 50.5 nM.

For `Cc1ccc(NC(=N)Nc2ccc(C)cc2)cc1`, the Ki on Sigma 2 receptor [3] stood at 1540 nM.
